System: diabetic SHRs
Test: Survival of streptozotocin-induced diabetic SHRs under drug treatment
Type: in vivo, rat
Conditions: week 21 of treatment
Description: Diabetes is induced in SHRs aged about 6 to 8 weeks weighing about 250 to 300 g by treatment e.g. with streptozotocin. The drugs are administered by twice daily average. Untreated diabetic SHRs are used as control group (group 1). Other groups of diabetic SHRs are treated with 30 mg/kg of valsartan (group 2), with 20 mg/kg of verapamil (group 3) and with a combination of 20 mg/kg of valsartan and 15 mg/kg of verapamil (group 4). On a regular basis, besides other parameters the survival rate after 21 weeks of treatment is being monitored.

| Compound | Survival Rate (30 mg/kg of valsartan (group 2)) [%] | Survival Rate (20 mg/kg of verapamil (group 3)) [%] |
| --- | --- | --- |
| CCCCC(=O)N(Cc1ccc(-c2ccccc2-c2nnn[nH]2)cc1)[C@H](C(=O)O)C(C)C [valsartan, (S)-N-(1-carboxy-2-methyl-prop-1-yl)-N-pentanoyl-N-[2′(1H-tetrazol-5-yl)biphenyl-4-yl-methyl]amine] | 45.9 |  |
| COc1ccc(CCN(C)CCCC(C#N)(c2ccc(OC)c(OC)c2)C(C)C)cc1OC (centres unmarked) [verapamil] |  | 42.9 |

— US6395728B2, “Method of treatment and pharmaceutical composition” (Novartis AG, priority 1999, dated 2002)
